Test results: publication PMC12785453, “Oral Fluid Concentrations and Pharmacological Effects of Clephedrone and Methylone in Humans” (International Journal of Molecular Sciences, 2025)
Like-named read-outs stand apart in the source and are kept apart here.

Assays:
[1] = tested on: MDMA-like discriminative stimulus effects; set-up: method as in PMID 30986635; conditions: cited from earlier work
[2] = tested on: healthy male participants; assay: Subjective effects, ARCI short form, methylone trial; assay type: in vivo, humans; conditions: 150 or 200 mg oral
Procedure: Methylone pharmacology was evaluated in a study designed as a randomized, double-blind, placebo-controlled, crossover clinical trial. Four pilot studies were conducted administering methylone at oral doses of 50 (n = 3), 100 (n = 6), 150 (n = 5), and 200 mg (n = 7). Participants attended 3 experimental sessions separated by a one-week wash-out period and received two doses of methylone (one dose per experimental session) compared to placebo, except in the last pilot study in which participants received one dose of methylone, compared to MDMA and placebo. However, in this manuscript, only the results corresponding to the highest methylone doses (n = 12; 150 and 200 mg; mean dose = 179.2 mg) are presented, to enable comparison with clephedrone self-administration. Participants were recruited by word of mouth in the volunteer database of the clinical pharmacology unit.
Methylone hydrochloride of high purity in powder form was acquired from LGC Standards (Teddington, UK) for the controlled study. The Pharmacy Department of the Hospital Universitari Germans Trias i Pujol was responsible for manufacturing, storing, and dispensing identical and opaque soft gelatin capsules containing 50 mg of methylone or a placebo (maltodextrin). Treatment consisted of 5 capsules that combined methylone and/or a placebo to reach the target dose. Details can be found in the previous article.
Subjective effects were evaluated with visual analog scales (VAS), the short form of the Addiction Research Center Inventory (ARCI), and the Evaluation of Subjective Effects of Substances with Abuse Potential questionnaire (VESSPA-SSE). In addition, the Sensitivity to Drug Reinforcement Questionnaire (SDRQ) and a pharmacological identification class questionnaire were used in the controlled study administering methylone.
The validated ARCI 49-item short form was used to evaluate and discriminate the subjective following five subscales that correspond to different classes of drugs of abuse: pentobarbital-chlorpromazine-alcohol group (PCAG) is susceptible to sedative effects, morphine-benzedrine group (MBG) is susceptible to euphoric effects, lysergic acid diethylamide (LSD) is susceptible to dysphoria and somatic symptoms, benzedrine (BG) is susceptible to intellectual efficiency and energy, and amphetamine (A) is susceptible to amphetamine-like effects.
Participants included in the naturalistic clephedrone study completed VAS at baseline, 0.50, 1, 1.5, 2, 3, 4, and 5 h, and ARCI and VESSPA at baseline, 1, 2, 3, 4, and 5 h after self-administering clephedrone. In the controlled study, VAS was performed at baseline and 0.25, 0.50, 0.75, 1, 1.5, 2, 3, 4, 6, 8, 10, and 24 h, and ARCI and VESSPA at baseline and 1, 2, 3, 4, 6, 8, and 10 h after administering methylone. Participants completed SDRQ and VAS sexual desire and arousal at baseline, 1 and 10 h, and the pharmacological class identification questionnaire at 8 h.
For statistical analysis, values of physiological (SBP, DBP, HR, and T) and subjective effects (VAS, ARCI, and VESSPA-SSE) were baseline–adjusted. Maximum effects (Emax) and the time needed to reach maximum effects (Tmax) were determined, and the area under the curve up to 5 h (AUC0–5h) for clephedrone and up to 6 h (AUC0–6h) for methylone was calculated using the trapezoidal rule. Emax and AUC values are presented as mean ± standard deviation, whereas Tmax is presented in median (range).
To find possible significant changes through the time course compared to baseline, a Dunnett multiple comparison test was carried out to compare each time point with baseline in both drug conditions. For clephedrone the comparisons were 0–0.5 h, 0–1 h, 0–1.5 h, 0–2 h, 0–3 h, 0–4 h and 0–5 h, and for methylone this analysis included 0–0.25 h, 0–0.5 h, 0–0.75 h, 0–1 h, 0–1.5 h, 0–2 h, 0–3 h, 0–4 h and 0–6 h. Given their different study designs, no comparative analysis between the time courses of both synthetic cathinones was conducted.

[3] = cited from earlier work
[4] = Oral fluid concentrations of clephedrone (GC-MS/MS); assay type: in vivo, humans; conditions: both sexes, human, 100 or 150 mg oral
Procedure: This study consisted of one experimental session in which participants (N = 8; 6 women, 2 men) selected their oral dose of clephedrone based on their drug use experience and preferences. According to their dose selection, 3 women and 1 man ingested 100 mg of clephedrone, while the remaining 3 women and 1 man opted for a higher dose of 150 mg. […] Participants were recruited by word of mouth by the harm reduction organization Energy Control in Barcelona (Associació Benestar i Desenvolupament, ABD).
In both studies, oral fluid samples for the quantification of clephedrone and methylone concentration were collected using Salivette standard tubes. For clephedrone, oral fluid samples were collected at baseline, 0.50, 1, 1.5, 2, 3, 4, and 5 h, whereas for methylone, they were collected at baseline, 0.25, 0.50, 0.75, 1, 1.5, 2, 3, 4, 6, 8, and 10 h. After collection, all samples were centrifuged and stored frozen at −20 °C until analysis. Clephedrone oral fluid concentrations were determined using a previously validated gas chromatography coupled to mass spectrometry systems (GC-MS/MS). Methylone was quantified via liquid chromatography–tandem mass spectrometry (LC–MS/MS).
For oral fluid concentrations of clephedrone and methylone, only a descriptive analysis was performed to obtain the main pharmacokinetics data, including the maximum concentration (Cmax), the time required to reach maximum concentrations (Tmax), and AUC up to 5 h (AUC0–5h) for clephedrone and up to 6 h (AUC0–6h) for methylone. These parameters were calculated using the Pharmacokinetic Functions for Microsoft Excel (Joel Usansky, Atul Desai, and Diane Tang-Liu, Department of Pharmacokinetics and Drug Metabolism, Allergan, Irvine, CA, USA). Oral cortisol concentrations after clephedrone were analyzed using Dunnett’s multiple comparison test (each time point with baseline).

Row | SMILES | Substitution for MDMA in drug discrimination ([1]; rats) | Tmax of effects collected using ARCI [2] | ARCI A (amphetamine-like effects) Emax ([2]; n=12) | ARCI BG (intellectual efficiency) Emax ([2]; n=12) | ARCI LSD (dysphoria) Emax ([2]; n=12) | ARCI MBG (euphoria) Emax ([2]; n=12) | ARCI PCAG (sedation) Emax ([2]; n=12) | ARCI A (amphetamine-like effects) AUC0-5/6 h ([2]; AUC0–6h, n=12) | ARCI BG (intellectual efficiency) AUC0-5/6 h ([2]; AUC0–6h, n=12) | ARCI LSD (dysphoria) AUC0-5/6 h ([2]; AUC0–6h, n=12) | ARCI MBG (euphoria) AUC0-5/6 h ([2]; AUC0–6h, n=12) | ARCI PCAG (sedation) AUC0-5/6 h ([2]; AUC0–6h, n=12) | Blood concentrations, mean ([3]; fatal cases) | Blood concentrations, mean ([3]; traffic controls, non-fatal cases (n = 9)) | Substitution for MDMA in drug discrimination ([1]; rodents) | Cmax ([4]; n=8) | Tmax ([4]; n=8) | AUC(0-t) ([4]; n=8, read-out: Oral fluid AUC0–5 h)
1 | CNC(C)C(=O)c1ccc2c(c1)OCO2 (stereo not drawn) [Methylone, 3,4-methylenedioxy-N-methylcathinone] | > 80% | 1 h | 2.92 ± 1.73 points | 1.50 ± 1.09 points | –0.25 ± 1.29 points | 5.92 ± 4.68 points | 2.17 ± 3.49 points | 4.33 ± 2.77 points·h | 0.83 ± 1.81 points·h | –0.96 ± 1.81 points·h | 8.25 ± 6.89 points·h | 5.46 ± 8.86 points·h | – | – | – | – | – | –
2 | CNC(C)C(=O)c1ccc(Cl)cc1 (stereo not drawn) [Clephedrone, 4-chloromethcathinone] | – | – | – | – | – | – | – | – | – | – | – | – | 547 ng/mL | 21.1 ng/mL | fully substituted for MDMA | 6410 ± 3490 ng/mL | 3 h | 10700 ng·h/mL
